Reference: ChEMBL document CHEMBL1201862, “PubChem BioAssay data set” (2004)
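In this assay, cells in 96-well plates receive the compound at five concentrations for 48 hours. Endpoints are linearly interpolated between the surrounding concentrations. GI50 marks 50% less growth.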 The source made the active and inactive calls. Cut-off read from the data, not from the text of the source: active = GI50 up to about 1.1 µM and inactive = higher. Where a SMILES comes first, the peptide text is derived from it. The star is where a group is joined. Cbz = O=C(OCc1ccccc1)*

Columns and labels:
Test in all cases: NCI tumour cell line growth inhibition, 48 h
[1] = tested on: 786-0
[2] = tested on: A498
[3] = tested on: A549
[4] = tested on: ACHN
[5] = tested on: BT-549
[6] = tested on: CAKI-1
[7] = tested on: CCRF-CEM
[8] = tested on: COLO 205
[9] = tested on: DU-145
[10] = tested on: EKVX
[11] = tested on: HCC 2998
[12] = tested on: HCT-116
[13] = tested on: HCT-15
[14] = tested on: HL-60
[15] = tested on: HOP-62
[16] = tested on: HOP-92
[17] = tested on: HT-29
[18] = tested on: Hs-578T
[19] = tested on: IGROV-1
[20] = tested on: K562
[21] = tested on: KM12
[22] = tested on: LOX IMVI
[23] = tested on: M14
[24] = tested on: MCF7
[25] = tested on: MDA-MB-231
[26] = tested on: MDA-MB-435
[27] = tested on: MOLT-4
[28] = tested on: Malme-3M
[29] = tested on: NCI-H226
[30] = tested on: NCI-H23
[31] = tested on: NCI-H460
[32] = tested on: NCI-H522
[33] = tested on: NCI/ADR-RES
[34] = tested on: OVCAR-3
[35] = tested on: OVCAR-4
[36] = tested on: OVCAR-5
[37] = tested on: OVCAR-8
[38] = tested on: PC-3
[39] = tested on: RPMI-8226
[40] = tested on: RXF 393
[41] = tested on: SF-268
[42] = tested on: SF-295
[43] = tested on: SF-539
[44] = tested on: SK-MEL-28
[45] = tested on: SK-MEL-2
[46] = tested on: SK-MEL-5
[47] = tested on: SK-OV-3
[48] = tested on: SN12C
[49] = tested on: SNB-19
[50] = tested on: SNB-75
[51] = tested on: SR
[52] = tested on: SW-620
[53] = tested on: T47D
[54] = tested on: TK-10
[55] = tested on: U-251
[56] = tested on: UACC-257
[57] = tested on: UACC-62
[58] = tested on: UO-31
[59] = tested on: MDA-N

For Cc1ccc(-c2n[nH]c(=O)n2/N=C\c2ccc([N+](=O)[O-])cc2)cc1, the GI50 [1] was > 100 µM (inactive), the GI50 [2] was > 100 µM (inactive) and the GI50 [3] was > 100 µM (inactive). For the same molecule, the GI50 [4] was > 80.5 µM (inactive), the GI50 [5] was 54.1 µM (inactive) and the GI50 [6] was > 100 µM (inactive). For the same molecule, the GI50 [7] was > 32.1 µM (inactive), the GI50 [8] was > 100 µM (inactive) and the GI50 [9] was > 100 µM (inactive). For the same molecule, the GI50 [10] was > 100 µM (inactive), the GI50 [11] was > 100 µM (inactive) and the GI50 [12] was 72.6 µM (inactive). The GI50 [13] was 86.7 µM, the GI50 [14] was > 35.7 µM (inactive) and the GI50 [15] was 52.4 µM (inactive). The GI50 [16] was > 74.3 µM (inactive), the GI50 [17] was > 65.6 µM (inactive) and the GI50 [18] was 41.1 µM (inactive). The GI50 [19] was > 100 µM (inactive), the GI50 [20] was 32 µM (inactive) and the GI50 [21] was > 100 µM (inactive). For the same molecule, the GI50 [22] was > 100 µM (inactive), the GI50 [23] was 58.2 µM (inactive) and the GI50 [24] was 99.5 µM (inactive). The GI50 [25] was 9.75 µM (inactive), the GI50 [26] was 35 µM (inactive) and the GI50 [27] was > 42.2 µM (inactive). The GI50 [28] was > 100 µM (inactive), the GI50 [29] was > 100 µM (inactive) and the GI50 [30] was > 100 µM (inactive). The GI50 [31] was > 100 µM (inactive), the GI50 [32] was > 100 µM (inactive) and the GI50 [33] was > 100 µM (inactive). The GI50 [34] was > 100 µM (inactive), the GI50 [35] was > 100 µM (inactive) and the GI50 [36] was > 100 µM (inactive). The GI50 [37] was > 100 µM (inactive), the GI50 [38] was > 100 µM (inactive) and the GI50 [39] was 76.9 µM (inactive). For the same molecule, the GI50 [40] was > 73.8 µM (inactive), the GI50 [41] was > 100 µM (inactive) and the GI50 [42] was > 100 µM (inactive). The GI50 [43] was > 100 µM (inactive), the GI50 [44] was > 100 µM (inactive) and the GI50 [45] was > 100 µM (inactive). The GI50 [46] was 92.9 µM (inactive), the GI50 [47] was > 100 µM (inactive) and the GI50 [48] was > 100 µM (inactive). For the same molecule, the GI50 [49] was > 100 µM (inactive), the GI50 [50] was 97.5 µM (inactive) and the GI50 [51] was 31.8 µM (inactive). The GI50 [52] was > 71.9 µM (inactive), the GI50 [53] was > 91.8 µM (inactive) and the GI50 [54] was > 100 µM (inactive). The GI50 [55] was > 100 µM (inactive), the GI50 [56] was > 100 µM (inactive) and the GI50 [57] was 60.1 µM (inactive). For the same molecule, the GI50 [58] was > 93.3 µM (inactive).

For CCOC(=O)CCC(NC(=O)C(CC(=O)OC)NC(=O)OCc1ccccc1)C(=O)NC(CC(=O)OC)C(=O)NC(CCC(=O)OCC)C(=O)NC(CC(=O)OC)C(=O)NC(CCC(=O)OCC)C(=O)NC(CC(=O)OCC)C(=O)OCC (stereo not given) (Cbz-D(OMe)E(OEt)D(OMe)E(OEt)D(OMe)E(OEt)D(OEt)-OEt; configuration not given here), the GI50 [1] was > 100 µM (inactive), the GI50 [2] was 98.9 µM (inactive) and the GI50 [3] was > 100 µM (inactive). For the same molecule, the GI50 [4] was > 100 µM (inactive), the GI50 [5] was > 100 µM (inactive) and the GI50 [7] was > 100 µM (inactive). The GI50 [9] was > 100 µM (inactive), the GI50 [11] was > 100 µM (inactive) and the GI50 [12] was > 100 µM (inactive). For the same molecule, the GI50 [13] was greater than 100 µM, the GI50 [14] was > 100 µM (inactive) and the GI50 [15] was > 100 µM (inactive). The GI50 [17] was > 100 µM (inactive), the GI50 [19] was > 100 µM (inactive) and the GI50 [20] was > 100 µM (inactive). The GI50 [22] was > 100 µM (inactive), the GI50 [24] was > 100 µM (inactive) and the GI50 [25] was > 100 µM (inactive). For the same molecule, the GI50 [26] was > 100 µM (inactive), the GI50 [59] was > 100 µM (inactive) and the GI50 [27] was > 100 µM (inactive). For the same molecule, the GI50 [28] was > 100 µM (inactive), the GI50 [29] was > 100 µM (inactive) and the GI50 [30] was > 100 µM (inactive). The GI50 [31] was > 100 µM (inactive), the GI50 [32] was > 100 µM (inactive) and the GI50 [34] was > 100 µM (inactive). The GI50 [35] was > 100 µM (inactive), the GI50 [36] was > 100 µM (inactive) and the GI50 [37] was > 100 µM (inactive). For the same molecule, the GI50 [38] was > 100 µM (inactive), the GI50 [39] was > 100 µM (inactive) and the GI50 [45] was > 100 µM (inactive). The GI50 [46] was > 100 µM (inactive), the GI50 [48] was > 100 µM (inactive) and the GI50 [49] was > 100 µM (inactive). For the same molecule, the GI50 [51] was > 100 µM (inactive), the GI50 [52] was > 100 µM (inactive) and the GI50 [53] was > 100 µM (inactive). For the same molecule, the GI50 [54] was > 100 µM (inactive), the GI50 [55] was > 100 µM (inactive) and the GI50 [56] was > 100 µM (inactive). For the same molecule, the GI50 [57] was > 100 µM (inactive) and the GI50 [58] was > 100 µM (inactive).

With Cc1ccc(O)c(-c2cscn2)c1 the GI50 [1] was 33.2 µM (inactive), the GI50 [2] was 15.3 µM (inactive) and the GI50 [3] was 29.7 µM (inactive). The GI50 [4] was 32 µM (inactive), the GI50 [5] was 74.5 µM (inactive) and the GI50 [6] was 39.3 µM (inactive). The GI50 [7] was 0.37 µM (active), the GI50 [8] was 12.5 µM (inactive) and the GI50 [10] was 32.2 µM (inactive). For the same molecule, the GI50 [11] was 24.7 µM (inactive), the GI50 [12] was 30.4 µM (inactive) and the GI50 [13] was 31.6 µM. The GI50 [14] was 1.81 µM (inactive), the GI50 [15] was 33.3 µM (inactive) and the GI50 [16] was 43.7 µM (inactive). For the same molecule, the GI50 [17] was 62.5 µM (inactive), the GI50 [18] was 32.9 µM (inactive) and the GI50 [19] was 55.7 µM (inactive). For the same molecule, the GI50 [20] was 52 µM (inactive), the GI50 [22] was 27.7 µM (inactive) and the GI50 [23] was 54.2 µM (inactive). The GI50 [24] was 39.9 µM (inactive), the GI50 [26] was 52.6 µM (inactive) and the GI50 [59] was 40.2 µM (inactive). For the same molecule, the GI50 [27] was 35.1 µM (inactive), the GI50 [28] was > 100 µM (inactive) and the GI50 [30] was 39.4 µM (inactive). The GI50 [31] was 28.5 µM (inactive), the GI50 [33] was 51.9 µM (inactive) and the GI50 [34] was 35.2 µM (inactive). For the same molecule, the GI50 [35] was 54 µM (inactive), the GI50 [36] was 11.2 µM (inactive) and the GI50 [37] was 42.9 µM (inactive). For the same molecule, the GI50 [38] was 39.8 µM (inactive), the GI50 [39] was 36 µM (inactive) and the GI50 [42] was 40 µM (inactive). For the same molecule, the GI50 [43] was 30.8 µM (inactive), the GI50 [45] was 64 µM (inactive) and the GI50 [46] was 23.7 µM (inactive). The GI50 [47] was 32.6 µM (inactive), the GI50 [48] was 35.2 µM (inactive) and the GI50 [49] was 25.1 µM (inactive). For the same molecule, the GI50 [51] was 40.4 µM (inactive), the GI50 [52] was 51.5 µM (inactive) and the GI50 [54] was 44.8 µM (inactive). The GI50 [56] was 73.1 µM (inactive), the GI50 [57] was 55 µM (inactive) and the GI50 [58] was 22.8 µM (inactive).
